Several values for one entry are separate records, joined by “and”; a condition that tells them apart may be missing. Identical values can stand only once.
Columns and labels:
Format in all cases: cell-based
Daudi cells = assay: Cell viability assay (CellTiter-Glo), Daudi; conditions: for IC50: 48 h treatment, CellTiter-Glo; for inhibition relative to 0 uM control, replicates / raw viability signal, replicates: listed as ABT199
Outline: (§1)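 Compounds added in serum-free medium for 4 h (RS4:11: 6 h), then FBS brought to 10% and incubation continued to 24 h or 48 h total at 37 °C, 5% CO2. Viability by CellTiter-Glo 2.0 luminescence; IC50 calculated.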

RS4:11 cells = assay: Cell viability assay (CellTiter-Glo), RS4:11; conditions: for raw luminescence reading / inhibition rate: RS4:11; for raw luminescence reading: listed as ABT199
Outline: as §1

Jurkat cells = assay: Cell viability assay (CellTiter-Glo), Jurkat; conditions: for inhibition relative to 0 uM control, replicates / raw viability signal, replicates: listed as ABT199
Method: (§2) The cell lines Jurkat (TIB-152), El4 (TIB-39), Daudi (ccl-213), RS4:11 (crl-1873), A549 (ccl-185), HepG2 (hb-8065) and PANC-1 (crl-1469) were purchased from ATCC (American Type Culture Collection), and MGC-803 (C6582) was purchased from Beyotime (https://www.beyotime.com/product/C6582.htm). […] Daudi and RS4:11 cells were cultured in RPMI-1640 medium (HyClone, SH30809.01) and 10% FBS (Gibco, 10099-141), whereas HepG2, MGC-803 and PANC-1 cells were cultured in MDEM (HyClone, SH30243.01). Cells were maintained at 37 °C under a humidified, 5% (v/v) CO2-containing atmosphere.
(§3) Cell viability was measured using CellTiter-Glo® 2.0 Reagent (Promega, G9242). […] After different inhibitors were added into serum-free medium and cultured for 4 h (RS4:11 for 6 h), FBS were supplemented to 10% and then incubated totally for 24 h or 48 h. Finally, the IC50 values were calculated based on measurements using a microplate reader (Thermo, Varioskan LUX). Statistical analysis was performed using software GraphPad Prism 7.0.

A549 cells (control) = assay: Cell viability assay (CellTiter-Glo), normal A549 (control); conditions: A549; for inhibition rate: fraction; for inhibition rate / raw viability reading: replicates
Method: as §2, §3

IC50 (Daudi cells): 9.1 ± 0.4 µM | IC50 (Daudi cells; Homo sapiens, Daudi, 48 h): 9.12 µM | IC50 (RS4:11 cells; Homo sapiens, RS4-11, 48 h treatment, CellTiter-Glo, small-molecule inhibitors, cells marked (nM)): 0.5 ± 0.1 nM | IC50 (Jurkat cells; Homo sapiens, 48 h treatment, CellTiter-Glo): 1.2 ± 0.2 µM
SMILES: CC1(C)CCC(CN2CCN(c3ccc(C(=O)NS(=O)(=O)c4ccc(NCC5CCOCC5)c([N+](=O)[O-])c4)c(Oc4cnc5[nH]ccc5c4)c3)CC2)=C(c2ccc(Cl)cc2)C1 [venetoclax]
inhibition relative to 0 uM control, replicates (Daudi cells; Daudi, 0.78125 uM): -8% and 9% and -10% and 0.517% and -5.68% and 2.67% | raw viability signal, replicates (Daudi cells; Daudi, 0.78125 uM): 1603 and 1350 and 1637 and 1476 and 1568 and 1444 | inhibition relative to 0 uM control, replicates (Daudi cells; Daudi, 1.5625 uM): 2.61% and -1.71% and 13% and -2.52% and -11% and 4.63% | raw viability signal, replicates (Daudi cells; Daudi, 1.5625 uM): 1445 and 1509 and 1291 and 1521 and 1645 and 1415 | inhibition relative to 0 uM control, replicates (Daudi cells; Daudi, 3.125 uM): 2% and 16% (2×) and 13% and 9% and 19% | raw viability signal, replicates (Daudi cells; Daudi, 3.125 uM): 1454 and 1252 and 1287 and 1241 and 1349 and 1200 | inhibition relative to 0 uM control, replicates (Daudi cells; Daudi, 6.25 uM): 29% and 42% and 9% and 30% and 46% and 26% | raw viability signal, replicates (Daudi cells; Daudi, 6.25 uM): 1056 and 861.7 and 1353 and 1036 and 800.8 and 1094 | inhibition relative to 0 uM control, replicates (Daudi cells; Daudi, 12.5 uM): 77% and 57% and 48% and 71% and 73% and 72% | raw viability signal, replicates (Daudi cells; Daudi, 12.5 uM): 335.5 and 640.9 and 766.9 and 436.4 and 400.1 and 410.0 | inhibition relative to 0 uM control, replicates (Daudi cells; Daudi, 25 uM): 93% (2×) and 70% and 85% and 88% and 97% | raw viability signal, replicates (Daudi cells; Daudi, 25 uM): 106.6 and 104.3 and 439.1 and 228.2 and 183.6 and 51.32 | inhibition at 0.000390625 µM (RS4:11 cells; Homo sapiens, RS4-11, RS4:11, 0.390625 nM, single wells, read-out: inhibition rate): 27% | inhibition at 0.00078125 µM (RS4:11 cells; Homo sapiens, RS4-11, RS4:11, 0.78125 nM, single wells, read-out: inhibition rate): 67% | inhibition at 0.0015625 µM (RS4:11 cells; Homo sapiens, RS4-11, RS4:11, 1.5625 nM, single wells, read-out: inhibition rate): 95% | inhibition at 0.003125 µM (RS4:11 cells; Homo sapiens, RS4-11, RS4:11, 3.125 nM, single wells, read-out: inhibition rate): 98% | inhibition at 0.00625 µM (RS4:11 cells; Homo sapiens, RS4-11, RS4:11, 6.25 nM, single wells, read-out: inhibition rate): 100% | inhibition at 0.0125 µM (RS4:11 cells; Homo sapiens, RS4-11, RS4:11, 12.5 nM, single wells, read-out: inhibition rate): 100% | inhibition at 0.025 µM (RS4:11 cells; Homo sapiens, RS4-11, RS4:11, 25 nM, single wells, read-out: inhibition rate): 100% | inhibition at 0.05 µM (RS4:11 cells; Homo sapiens, RS4-11, RS4:11, 50 nM, single wells, read-out: inhibition rate): 100% | inhibition at 0.1 µM (RS4:11 cells; Homo sapiens, RS4-11, RS4:11, 100 nM, single wells, read-out: inhibition rate): 100% | inhibition at 0.2 µM (RS4:11 cells; Homo sapiens, RS4-11, RS4:11, 200 nM, single wells, read-out: inhibition rate): 100% | raw luminescence reading (RS4:11 cells; 0.012207 nM, single wells): 473100 and 440900 and 421900 and 464800 and 440500 and 404600 | raw luminescence reading (RS4:11 cells; 0.0244141 nM, single wells): 468000 and 467900 and 427500 and 463600 and 451400 and 411500 | raw luminescence reading (RS4:11 cells; 0.0488281 nM, single wells): 464300 and 463300 and 420200 and 448100 and 441000 and 405800 | raw luminescence reading (RS4:11 cells; 0.0976562 nM, single wells): 446400 and 453400 and 406000 and 426100 and 420400 and 382600 | raw luminescence reading (RS4:11 cells; 0.195312 nM, single wells): 418900 and 420900 and 384800 and 390800 and 394900 and 350200 | raw luminescence reading (RS4:11 cells; 0.390625 nM, single wells): 317400 and 330800 and 297800 and 297300 and 296900 and 256100 | inhibition rate (RS4:11 cells; 0.390625 nM, single wells, listed as ABT199, 0.000390625 µM): 24% and 32% and 41% | raw luminescence reading (RS4:11 cells; 0.78125 nM, single wells): 141300 and 149000 and 125700 and 134100 and 136000 and 117900 | inhibition rate (RS4:11 cells; 0.78125 nM, single wells, listed as ABT199, 0.00078125 µM): 66% and 71% and 69% and 73% | raw luminescence reading (RS4:11 cells; 1.5625 nM, single wells): 23070 and 25650 and 25890 and 29130 and 27640 and 29210 | inhibition rate (RS4:11 cells; 1.5625 nM, single wells, listed as ABT199, 0.0015625 µM): 94% and 93% | raw luminescence reading (RS4:11 cells; 3.125 nM, single wells): 9731 and 10360 and 11130 and 12480 and 11890 and 12850 | inhibition rate (RS4:11 cells; 3.125 nM, single wells, listed as ABT199, 0.003125 µM): 97% | raw luminescence reading (RS4:11 cells; 6.25 nM, single wells): 514.1 and 705.1 and 803.0 and 736.8 and 691.7 and 772.7 | raw luminescence reading (RS4:11 cells; 12.5 nM, single wells): 355.5 and 246.5 and 256.3 and 381.9 and 264.2 and 272.2 | raw luminescence reading (RS4:11 cells; 25 nM, single wells): 183.0 and 151.3 and 145.9 and 222.1 and 185.6 and 197.7 | raw luminescence reading (RS4:11 cells; 50 nM, single wells): 222.3 and 165.6 and 152.2 and 216.6 and 173.6 and 195.6 | inhibition relative to 0 uM control, replicates (Jurkat cells; 0.09375 uM): 3.52% and 1.46% and 6% and 5% (2×) and 2.56% | raw viability signal, replicates (Jurkat cells; 0.09375 uM): 1920000 and 1961000 and 1868000 and 1890000 and 1939000 and 1891000 | inhibition relative to 0 uM control, replicates (Jurkat cells; 0.1875 uM): 17% and 21% (2×) and 20% (2×) | raw viability signal, replicates (Jurkat cells; 0.1875 uM): 1613000 and 1643000 and 1579000 and 1582000 and 1598000 and 1590000 | inhibition relative to 0 uM control, replicates (Jurkat cells; 0.375 uM): 36% and 31% and 32% and 27% and 22% and 17% | raw viability signal, replicates (Jurkat cells; 0.375 uM): 1276000 and 1374000 and 1347000 and 1456000 and 1547000 and 1657000 | inhibition relative to 0 uM control, replicates (Jurkat cells; 0.75 uM): 38% and 41% and 36% and 33% and 32% | raw viability signal, replicates (Jurkat cells; 0.75 uM): 1124000 and 1225000 and 1165000 and 1278000 and 1326000 and 1356000 | inhibition relative to 0 uM control, replicates (Jurkat cells; 1.5 uM): 52% and 54% (2×) and 53% and 47% | raw viability signal, replicates (Jurkat cells; 1.5 uM): 903200 and 948100 and 908900 and 906300 and 926500 and 1061000 | inhibition relative to 0 uM control, replicates (Jurkat cells; 3 uM): 86% (3×) and 87% (2×) | raw viability signal, replicates (Jurkat cells; 3 uM): 248500 and 275900 and 263600 and 270200 and 263000 and 279700 | inhibition at 0.1875 µM (Jurkat cells; Homo sapiens, 0.1875 uM, read-out: inhibition relative to 0 uM control, replicates): 19% | inhibition at 0.75 µM (Jurkat cells; Homo sapiens, 0.75 uM, read-out: inhibition relative to 0 uM control, replicates): 44% | inhibition at 1.5 µM (Jurkat cells; Homo sapiens, 1.5 uM, read-out: inhibition relative to 0 uM control, replicates): 55% | inhibition at 3 µM (Jurkat cells; Homo sapiens, 3 uM, read-out: inhibition relative to 0 uM control, replicates): 88% | average (raw viability reading) (A549 cells (control); ABT199 0.3125 uM): 403300 | inhibition rate (A549 cells (control); ABT199 0.3125 uM): 0.1384 and 0.2199 and 0.2562 and 0.2483 and 0.2515 and 0.3247 | raw viability reading (A549 cells (control); ABT199 0.3125 uM): 394600 and 398800 and 397100 and 358300 and 457100 and 413900 | average (raw viability reading) (A549 cells (control); ABT199 0.625 uM): 437733 | inhibition rate (A549 cells (control); ABT199 0.625 uM): 0.1102 and 0.1614 and 0.1995 and 0.1861 and 0.1882 and 0.2042 | raw viability reading (A549 cells (control); ABT199 0.625 uM): 424700 and 431800 and 430700 and 422200 and 472100 and 444900 | average (raw viability reading) (A549 cells (control); ABT199 1.25 uM): 415750 | inhibition rate (A549 cells (control); ABT199 1.25 uM): 0.1437 and 0.2152 and 0.2434 and 0.2293 and 0.2263 and 0.2404 | raw viability reading (A549 cells (control); ABT199 1.25 uM): 401400 and 408900 and 410500 and 403000 and 454300 and 416400 | average (raw viability reading) (A549 cells (control); ABT199 2.5 uM): 279550 | inhibition rate (A549 cells (control); ABT199 2.5 uM): 0.4238 and 0.4647 and 0.4862 and 0.4847 and 0.4854 and 0.4937 | raw viability reading (A549 cells (control); ABT199 2.5 uM): 272600 and 273400 and 273000 and 268600 and 305700 and 284000 | average (raw viability reading) (A549 cells (control); ABT199 5 uM): 231967 | inhibition rate (A549 cells (control); ABT199 5 uM): 0.5341 and 0.5546 and 0.5723 and 0.5614 and 0.5684 and 0.5859 | raw viability reading (A549 cells (control); ABT199 5 uM): 226900 and 232700 and 229000 and 219700 and 247200 and 236300 | average (raw viability reading) (A549 cells (control); ABT199 10 uM): 181100 | inhibition rate (A549 cells (control); ABT199 10 uM): 0.6325 and 0.6605 and 0.666 and 0.6628 and 0.6649 and 0.6653 | raw viability reading (A549 cells (control); ABT199 10 uM): 177200 and 178900 and 177800 and 177600 and 195000 and 180100

— article PMC10874388, “Cyclic peptides discriminate BCL-2 and its clinical mutants from BCL-XL by engaging a single-residue discrepancy” (Nature Communications, 2024)
